Earlier results as cited in patent US11559045B2, “Synergistic mixture for inducing hygienic behavior in honey bees, and related compositions and methods” (University of North Carolina at Greensboro, priority 2019, dated 2023).

Tested on: honey bees
Conditions: previously shown (US 2018/0177160; Nazzi et al. 2004)

| Structure (SMILES) | induction of hygienic behavior in honey bees |
| --- | --- |
| CCCCC/C=C\CCCCCCCC [Compound (IV), (Z)-6-pentadecene] | induce hygienic behavior |
| CCCCCCCCC/C=C\CCCCCCCCCCCCCCCCCCCCCC [Compound (I), (Z)-10-tritriacontene] | induce hygienic behavior |
